Square brackets hold non-standard residues; d marks the D form. Peptide text beside a SMILES is read from it. * marks the point of attachment. Lauroyl = CCCCCCCCCCCC(=O)*
Legend:
Assay in all cases: microbe, parasite or virus in culture
[1] = tested on: P. aeruginosa 100036 (MDR/XDR); conditions: P. aeruginosa 100036
Protocol: (§1) We evaluated the activity of SPRLPs in combination with fifteen clinically-used antibiotics against P. aeruginosa. Antibiotics tested included fluoroquinolones (moxifloxacin, ciprofloxacin and levofloxacin), aminoglycosides (gentamicin, tobramycin and amikacin), cephalosporins (ceftazidime and cefotaxime), carbapenems (meropenem and doripenem), aztreonam, rifampicin, minocycline, colistin and fosfomycin. The SPRLPs were screened initially at a fixed concentration of 8 μg/mL (5 μM) in combination with antibiotics against wild-type P. aeruginosa PAO1. We assessed potentiation by at least a four-fold absolute MIC reduction of the antibiotic, after which synergism was further validated by a conventional checkerboard assay. A fractional inhibitory concentration (FIC) index of ≤0.5, 0.5<x≤4 or >4 was interpreted as synergistic, indifferent or antagonistic interaction, respectively (31). FIC index was obtained by adding the FIC values of the antibiotic and the SPRLP adjuvant. FIC of antibiotics was calculated by dividing the MIC of the antibiotic in the presence of the adjuvant by the MIC of the antibiotic alone. Similarly, the FIC of adjuvant was calculated via dividing the MIC of the adjuvant in the presence of the antibiotic by the MIC of the adjuvant alone.
(§2) Isolates used in this study were either obtained from the American Type Culture Collection (ATCC), the Canadian National Intensive Care Unit (CAN-ICU) surveillance study (27) or the Canadian Ward Surveillance (CANWARD) study (28). Clinical isolates belonging to the CAN-ICU and CANWARD studies were recovered from patients suffering a presumed infectious disease entering or admitted in a participating medical center across Canada during the time of study. MDR P. aeruginosa strains in this study refer to those that are resistant to aminoglycosides, fluoroquinolones, cephalosporins, and carbapenems while XDR strains are those that are resistant to aminoglycosides, fluoroquinolones, cephalosporins, carbapenems, aztreonam and penicillin+β-lactamase inhibitor combination (39, 40).
(§3) Microbroth dilution susceptibility test following the Clinical and Laboratory Standards Institute (CLSI) guidelines (32) was performed to assess the in vitro antibacterial activity of SPRLPs. Overnight grown bacterial cultures were diluted in saline to achieve a 0.5 McFarland turbidity, followed by 1:50 dilution in Mueller-Hinton broth (MHB) for inoculation to a final concentration of 5×10^5 colony forming units/mL. The assay was done on a 96-well plate to which the agents of interest were 2-fold serially diluted in MHB and incubated with equal volumes of inoculum at 37° C. for 18 hours. MIC was determined as the lowest concentration to inhibit visible bacterial growth in form of turbidity, which was confirmed using EMax Plus microplate reader (Molecular Devices, USA) at a wavelength of 590 nm. The well containing MHB broth with or without bacterial cells was used as positive or negative control, respectively.
(§4) The assay was performed on a 96-well plate, to which the agents of interest was 2-fold serially diluted in working MHB. Prior to serial dilution, SPRLP was added to the working MHB media so that a fixed final concentration of 8 μg/mL (5 μM) SPRLP per well was achieved. To ensure that the assay was working, the MIC determination test of the studied antibiotic (without SPRLP) was included on the same plate. Similar MIC results between the assay comparator and an independent MIC determination test (on a different plate) ensured validity of the synergy test. Overnight grown bacterial cultures were diluted in saline to 0.5 McFarland turbidity, followed by 1:50 dilution in MHB (without SPRLP) and inoculation into each well to a final concentration of approximately 5×10^5 colony forming units/mL. Wells containing only MHB (without SPRLP) with or without bacterial cells were used as positive or negative control, respectively.

[2] = tested on: P. aeruginosa 101243 (colistin-resistant, MDR/XDR); conditions: P. aeruginosa 101243 (colistin-resistant)
Protocol: as §1, §2, §3, §4

[3] = tested on: P. aeruginosa 101885 (MDR/XDR); conditions: P. aeruginosa 101885
Protocol: as §1, §2, §3, §4

[4] = tested on: P. aeruginosa 259-96918 (MDR/XDR); conditions: P. aeruginosa 259-96918
Protocol: as §1, §2, §3, §4

[5] = tested on: P. aeruginosa 260-97103 (MDR/XDR); conditions: P. aeruginosa 260-97103
Protocol: as §1, §2, §3, §4

[6] = tested on: P. aeruginosa 262-101856 (MDR/XDR); conditions: P. aeruginosa 262-101856
Protocol: as §1, §2, §3, §4

[7] = tested on: P. aeruginosa 264-104354 (MDR/XDR); conditions: P. aeruginosa 264-104354
Protocol: as §1, §2, §3, §4

[8] = tested on: P. aeruginosa 91433 (colistin-resistant, MDR/XDR); conditions: P. aeruginosa 91433 (colistin-resistant)
Protocol: as §1, §2, §3, §4

[9] = MIC of minocycline in the presence of 8 μg/mL (5 μM) lipopeptide
[10] = MIC of rifampicin in the presence of 8 μg/mL (5 μM) lipopeptide
[11] = antibiotic or lipopeptide alone
[12] = degree of minocycline potentiation in the presence of 8 μg/mL (5 μM) lipopeptide
[13] = degree of rifampicin potentiation in the presence of 8 μg/mL (5 μM) lipopeptide

CCCCCCCCCCCC(=O)N1CCC[C@@H]1C(=O)N[C@H](CCCNC(=N)N)C(=O)N1CCC[C@@H]1C(=O)N[C@H](CCCNC(=N)N)C(=O)N1CCC[C@@H]1C(=O)N[C@H](CCCNC(=N)N)C(=O)N1CCC[C@@H]1C(N)=O [C12-prp] (Lauroyl-[dP][dR][dP][dR][dP][dR][dP]-NH2)
Absolute MIC MIN [1, 9]: 8 µg/mL | Absolute MIC RMP [1, 10]: 4 µg/mL | MIC (agent alone) [1, 11]: >128 µg/mL | Potentiation [1, 12]: 2-fold | Potentiation [1, 13]: 4-fold | Absolute MIC MIN [2, 9]: 2 µg/mL | Absolute MIC RMP [2, 10]: 0.5 µg/mL | MIC (agent alone) [2, 11]: >128 µg/mL | Potentiation [2, 12]: 2-fold | Potentiation [2, 13]: 8-fold | Absolute MIC MIN [3, 9]: 8 µg/mL | Absolute MIC RMP [3, 10]: 4 µg/mL | MIC (agent alone) [3, 11]: >128 µg/mL | Potentiation [3, 12]: 2-fold | Potentiation [3, 13]: 4-fold | Absolute MIC MIN [4, 9]: 4 µg/mL | Absolute MIC RMP [4, 10]: 2 µg/mL | MIC (agent alone) [4, 11]: >128 µg/mL | Potentiation [4, 12]: 4-fold | Potentiation [4, 13]: 8-fold | Absolute MIC MIN [5, 9]: 2 µg/mL | Absolute MIC RMP [5, 10]: 4 µg/mL | MIC (agent alone) [5, 11]: >128 µg/mL | Potentiation [5, 12]: 8-fold | Potentiation [5, 13]: 4-fold | Absolute MIC MIN [6, 9]: 16 µg/mL | Absolute MIC RMP [6, 10]: 256 µg/mL | MIC (agent alone) [6, 11]: >128 µg/mL | Potentiation [6, 12]: 4-fold | Potentiation [6, 13]: 2-fold | Absolute MIC MIN [7, 9]: 4 µg/mL | Absolute MIC RMP [7, 10]: 2 µg/mL | MIC (agent alone) [7, 11]: >128 µg/mL | Potentiation [7, 12]: 8-fold | Potentiation [7, 13]: 4-fold | Absolute MIC MIN [8, 9]: 4 µg/mL | Absolute MIC RMP [8, 10]: 2 µg/mL | MIC (agent alone) [8, 11]: >128 µg/mL | Potentiation [8, 12]: 8-fold | Potentiation [8, 13]: 8-fold
